Results taken from ChEMBL document CHEMBL1123315, “Total chemical synthesis and antitumor evaluation of the 9-aza analogue of N-(trifluoroacetyl)-4-demethoxydaunomycin” (1986).
Activity calls are given as the source filed them. The rule behind the calls is not given here.

Assays:
Mus musculus [1] = assay: Compound was tested intraperitoneally against P388 acute lymphocytic leukemia in mice at a dose 100,50,25,12.5,6.25,3.72,1.56 mg/kg; format: functional
Mus musculus [2] = assay: Compound was tested intraperitoneally against P388 acute lymphocytic leukemia in mice; NA means inactive; format: functional, organism-based
Mus musculus [3] = assay: Compound was tested intraperitoneally against P388 acute lymphocytic leukemia in mice at a dose 0.75 mg/kg; format: functional; conditions: route intraperitoneal

Structure (SMILES)	T/C (Mus musculus [1])	T/C (Mus musculus [2])	also measured
CC(=O)N1Cc2c(O)c3c(c(O)c2[C@H](OC2C[C@H](NC(=O)C(F)(F)F)[C@H](O)[C@H](C)O2)C1)C(=O)c1ccccc1C3=O (stereo not given in full)	105	–	–
COc1ccc(OC)c2c1CN(C(C)=O)CC2O (stereo not given)	–	inactive	–
CC(=O)[C@]1(O)Cc2c(O)c3c(c(O)c2[C@@H](OC2CC(N)C(O)C(C)O2)C1)C(=O)c1ccccc1C3=O (stereo not given in full)	–	–	T/C (Mus musculus [3]): 160
COc1ccc(OC)c(CNCC(OC)OC)c1	–	inactive	–
CC(=O)N1Cc2c(O)c3c(c(O)c2[C@@H](OC2C[C@H](NC(=O)C(F)(F)F)[C@H](O)[C@H](C)O2)C1)C(=O)c1ccccc1C3=O (stereo not given in full)	105	–	–
